Laboratory results: patent US5372944A, “Method for conversion of halogenated hydrocarbons to halohydrins” (The Dow Chemical Company, priority 1993, dated 1994)

Legend:
[1] = biological target: partially purified TDTM-003 dehalogenase (Rhodococcus sp. TDTM0003, UniProt P59336); experiment: Substrate profile of partially purified TDTM-003 dehalogenase; assay type: biochemical, Rhodococcus species TDTM-003; details: corrected for non-enzymatic hydrolysis
Experimental: (§1) Hydrolytic dehalogenase enzyme activity was evaluated by adding an appropriate amount of cell free extract or enzyme preparation to 5.0 mL of 100 mM glycine buffer, pH=9.0 in a 7 mL glass vial. The halogenated substrate (5.0 μl) and a small stir bar were added, and the vial capped. Reaction was initiated by transfer to a 30° C. water bath equipped with a magnetic stirrer. Periodically 1.0 mL samples were removed and assayed for free halide. Rates were determined after correcting for non-enzymatic hydrolysis with an appropriate blank. A standard curve was prepared using sodium chloride.
Frozen pellets from 2 liters of culture were thawed into 150 mL of 10 mM Tris sulfate buffer, pH=7.5 containing 1 mM disodium EDTA. This buffer was used throughout the entire purification. The suspension was sonicated for approximately 1 hour with ice cooling using a Microson Ultrasonic Cell Disrupter and centrifuged at 10,000 rpm for 15 minutes to remove cell debris. Supernatant was removed and the sonication/centrifugation repeated with fresh buffer to increase enzyme yield. Overall sonication efficiency was monitored by absorbence at 280 nm. Cell free extracts were combined and brought slowly to 30 percent saturation with solid ammonium sulfate. The suspension was centrifuged at 10,000 rpm for 30 minutes and the pellet discarded. The supernatant was brought to 70 percent saturation with solid ammonium sulfate and centrifugation repeated. Supernatant was discarded and the pellet taken up in a small volume of buffer and dialyzed overnight against 1 liter of the same. The preparation was applied to a 1.5×15cm column of DEAE-Sephadex equilibrated with the same buffer elution carried out with a 1 liter gradient from 0 to 400 mM ammonium sulfate. Fractions of about 7-8 mLs were collected. The active fractions were pooled and brought to 90 percent saturation with ammonium sulfate. The pellet was taken up in a minimal amount of buffer, ultrafiltered to 2.5 mL using 10,000 MWCO Novacell Ultrafiltration cell, and applied to a 1.5×90 cm Sephadex G-100 column. Elution was by gravity at 90 cm and fractions of 7-8 mLs were collected. Active fractions were poled, brought to 30 percent saturation with ammonium sulfate, and applied to a 10 ml column of Butyl-agarose equilibrated in the same. Elution was performed with a 500 mL gradient from 30 percent-0 percent ammonium sulfate. Active fractions were pooled, dialyzed and used for substrate selectivity studies.
To evaluate the substrate selectivity of haloalkane dehalogenase from isolated Rhodococcus species, an enzyme preparation from the strain designated TDTM-003 was purified by the procedure described under General Experimental. This preparation provided a dehalogenase which was approximately 50 percent pure as estimated by SDS-PAGE and was free of interfering halohydrin dehalogenase activity.
The activity of this partially purified TDTM-003 dehalogenase preparation was evaluated against various chlorinated and brominated substrates. Each enzymatic rate was corrected for non-enzymatic hydroloysis.

TDTM-003 = experiment: Utilization of carbon containing compounds for growth in liquid culture, TDTM-003; assay type: cell-based, Rhodococcus species; details: liquid culture
TDTM-003-60-2-11 [2] = experiment: Utilization of carbon containing compounds for growth in liquid culture, TDTM-003-60-2-11; assay type: cell-based, Rhodococcus species ATCC 55388;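 further: minus means no visible growth and plus means good growth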
Source text: A representative double mutant designated TDTM-003-60-2-11, made by the above example was deposited at the American Type Culture Collection on Jan. 28, 1993 and given the ATCC designation 55388.

[3] = tested on: dehalogenase in cell free extracts of Rhodococcus Rhodochrous, TDTM-003; experiment: Primary screen of dehalogenase activity in cell free extracts of TDTM-003; assay type: biochemical
Experimental: Following overnight growth, 50 μl of 1-chlorobutane was added to induce the dehalogenase. After 24 hours induction, cells were harvested by centrifugation, resuspended in cold 10mM Tris sulfate/1 mM disodium EDTA, pH=7.5, and disrupted by sonication. Cell debris was removed by centrifugation at 10,000 rpm for 30 minutes, cell free extracts dialyzed overnight against the same buffer, and assayed without dilution for dehalogenase activity.
Free chloride or bromide was assayed qualitatively using a chloride electrode (Orion), or quantitatively using the colorimetric method (430 nm) described by J. G. Bergmann, et al., Anal. Chem., 29:241-243 (1957).
as §1
Preliminary studies were performed on cell free extracts of TDTM-003 to evaluate the enzyme substrate selectivity, and the results of this study are shown in Table 2.

TDTM-003-60-2-11 [4] = experiment: Dehalogenation by double mutant strain TDTM-003-60-2-11 in shake flask with bulb feeder; assay type: cell-based, Rhodococcus sp.; details: after 120 hours
Source text: For gas chromatography (GC) analysis of halogenated metabolites, cultures were centrifuged briefly to remove cells, saturated with sodium sulfate, and an equivalent volume of methylene chloride added. The suspension was vortexed vigorously, centrifuged to break the emulsion and the methylene chloride phase removed.
Analysis of all halocarbon substrates and products from culture broths was done by GC using a Hewlett Packard 5710 equipped with a 7671A Autoinjector with the following protocol:
Dehalogenation of 1,2-dichloropropane by the double mutant strain of Rhodococcus sp., designated TDTM-003-60-2-11 was assayed in the following manner: 5 mL of an overnight culture (16 hours) were used as inoculum for 50 mL MM1X4P containing 5 g/L disodium succinate in a 250 mL flask. At 4 and 8 hours growth, 10 μL of 1-chlorobutane was added to induce the dehalogenase enzyme. Following 24 hours of growth, cells were harvested by centrifugation, resuspended into 50 mL of fresh MM1X4P, and transferred to a sterile 250 mL shake flask equipped with a bulb feeder. To the bulb feeder was added 1,2-dichloropropane and incubation continued at 28° C. and 150 rpm. […] The production of halohydrin products was monitored by gas chromatography. 1 -Chloro-2-propanol and 2-chloro-1-propanol accumulate linearly in the culture broth to 74 parts-per-million (ppm) (w/v) and 20 ppm (w/v) respectively after 120 hours. The overall rate of halohydrin production is 0.60 mg/g dry cells/hr.
The procedure described in Example 6 was followed except 1,2-dichlorobutanereplaced 1-chlorobutane in the bulb feeder.
The procedure described in Example 6 was followed except 1,2,3-trichloropropane replaced 1-chlorobutane in the bulb feeder.

Chain of partially purified TDTM-003 dehalogenase (P59336 whole entry): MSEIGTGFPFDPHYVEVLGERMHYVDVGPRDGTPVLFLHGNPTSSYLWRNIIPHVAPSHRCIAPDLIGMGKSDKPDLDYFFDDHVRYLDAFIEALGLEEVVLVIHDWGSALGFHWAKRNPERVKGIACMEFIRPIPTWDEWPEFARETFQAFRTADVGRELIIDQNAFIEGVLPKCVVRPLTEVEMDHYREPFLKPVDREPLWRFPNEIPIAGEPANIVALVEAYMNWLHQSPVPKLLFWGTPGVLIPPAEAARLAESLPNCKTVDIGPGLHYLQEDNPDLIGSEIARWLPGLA

Compound | Relative Rate of Halogen Release, 1-Chlorobutane = 100 [1] | Relative Rate of Chloride Release, 1-chlorobutane = 100 [3] | other results
ClCCBr [1-bromo-2-chloroethane] | 751.000 |  | 
CC(Br)CCBr (stereo not drawn) [1,3-dibromobutane] | 155.000 |  | 
O=C(O)[C@H](O)[C@@H](O)[C@H](O)[C@H](O)CO [Gluconate] |  |  | Utilization of carbon source for growth, TDTM-003 (TDTM-003): ++; Utilization of carbon source for growth, TDTM-003-60-2-11 (TDTM-003-60-2-11 [2]): ++
CCCBr [1-bromopropane] | 459.000 |  | 
CC(C)Br [2-Bromopropane] | 55.000 |  | 
CCC(C)Br (stereo not drawn) [2-bromobutane] | 123.000 |  | 
CCCCCBr [1-bromopentane] | 203.000 |  | 
CCC(N)C(=O)O (stereo not drawn) [Aminobutyrate] |  |  | Utilization of carbon source for growth, TDTM-003 (TDTM-003): +; Utilization of carbon source for growth, TDTM-003-60-2-11 (TDTM-003-60-2-11 [2]): +
ClCCCCCCCCCCCl [1,10-dichlorodecane] | 52.000 | 124 | 
OC(CCl)CCl [1,3-dichloro-2-propane] |  |  | Utilization of carbon source for growth, TDTM-003 (TDTM-003): +/-; Utilization of carbon source for growth, TDTM-003-60-2-11 (TDTM-003-60-2-11 [2]): -
CCC(Br)CBr (stereo not drawn) [1,2-dibromobutane] | 756.000 |  | 
CC(C)CCl [1-chloro-2-methylpropane] |  | 117 | 
CCCCCCCCl [1-chloroheptane] | 130.000 |  | 
ClCCCCCCCl [1,6-dichlorohexane] | 252.000 | 169 | 
OCC(Cl)CCl (stereo not drawn) [2,3-dichloro-1-propane] |  |  | Utilization of carbon source for growth, TDTM-003 (TDTM-003): + /-; Utilization of carbon source for growth, TDTM-003-60-2-11 (TDTM-003-60-2-11 [2]): -
BrCCCCBr [1,4-dibromobutane] | 294.000 |  | 
CCC(O)CCl (stereo not drawn) [1-Chloro-2-butanol] |  |  | halohydrin accumulated in culture broth (TDTM-003-60-2-11 [4]; substrate 1,2-dichlorobutane): 6.5 ppm (w/v)
Phenylacetate |  |  | Utilization of carbon source for growth, TDTM-003 (TDTM-003): +; Utilization of carbon source for growth, TDTM-003-60-2-11 (TDTM-003-60-2-11 [2]): -
OCC(Cl)CCl (stereo not drawn) [2,3-dichloro-1-propanol] |  |  | halohydrin accumulated in culture broth (TDTM-003-60-2-11 [4]; substrate 1,2,3-trichloropropane): 211 ppm (w/v)
ClCCCCl [1,3-dichloropropane] | 253.000 | 203 | 
CC(O)CCl (stereo not drawn) [1-chloro-2-propanol] |  |  | halohydrin accumulated in culture broth (TDTM-003-60-2-11 [4]; substrate 1,2-dichloropropane): 74 ppm (w/v)
O=C(O)c1cccc(O)c1 [m-OH Benz] |  |  | Utilization of carbon source for growth, TDTM-003 (TDTM-003): -; Utilization of carbon source for growth, TDTM-003-60-2-11 (TDTM-003-60-2-11 [2]): -
BrCCCBr [1,3-dibromopropane] | 771.000 |  | 
ClCCCl [1,2-dichloroethane] | 4.400 | 2.8 | 
CCCCCCCCBr [1-bromooctane] | 414.000 |  | 
CCCCCl [1-chlorobutane] | 100.000 | 100 | 
CCCCCCCCCCBr [1-bromodecane] | 98.000 |  | 
CCC(Cl)CO (stereo not drawn) [2-chloro-1-butanol] |  |  | halohydrin accumulated in culture broth (TDTM-003-60-2-11 [4]; substrate 1,2-dichlorobutane): 265 ppm (w/v)

Compound | Relative Rate of Halogen Release, 1-Chlorobutane = 100 [1] | Relative Rate of Chloride Release, 1-chlorobutane = 100 [3] | other results
BrCCBr [1,2-dibromoethane] | 1318.000 |  | 
CCCCCCl [1-chloropentane] | 81.000 | 109 | 
ClCCCCCl [1,4-dichlorobutane] | 261.000 | 178 | 
CC(Cl)C(C)Cl (stereo not drawn) [2,3-dichlorobutane] | 19.000 | 73 | 
CC(Br)C(C)Br (stereo not drawn) [2,3-dibromobutane] | 846.000 |  | 
Dextrin |  |  | Utilization of carbon source for growth, TDTM-003 (TDTM-003): -; Utilization of carbon source for growth, TDTM-003-60-2-11 (TDTM-003-60-2-11 [2]): -
CC(C)(Cl)CCl [1,2-dichloro-2-methylpropane] | 0.000 | 300 | 
CC(Cl)CO (stereo not drawn) [2-chloro-1-propanol] |  |  | halohydrin accumulated in culture broth (TDTM-003-60-2-11 [4]; substrate 1,2-dichloropropane): 20 ppm (w/v)
CC(C)(Cl)Cl [2,2-dichloropropane] | 23.000 |  | 
CCC(C)Cl (stereo not drawn) [2-chlorobutane] | 20.000 | 65 | 
CCCCCCCCCCCl [1-chlorodecane] | 28.000 |  | 
O=C(O)c1ccc(O)cc1 [p-OH-Benz] |  |  | Utilization of carbon source for growth, TDTM-003 (TDTM-003): -; Utilization of carbon source for growth, TDTM-003-60-2-11 (TDTM-003-60-2-11 [2]): -
CC(C)(C)Cl [2-chloro-2-methylpropane] |  | 2917 | 
ClC1CCCCC1 [chlorocyclohexane] | 7.500 |  | 
CCCCl [1-chloropropane] | 33.000 | 57 | 
CC(Br)CBr (stereo not drawn) [1,2-dibromopropane] | 900.000 |  | 
BrCCCCCCCCBr [1,8-dibromooctane] | 173.000 |  | 
Glycogen |  |  | Utilization of carbon source for growth, TDTM-003 (TDTM-003): +; Utilization of carbon source for growth, TDTM-003-60-2-11 (TDTM-003-60-2-11 [2]): +
CC(Cl)CCCl (stereo not drawn) [1,3-dichlorobutane] | 81.000 | 63 | 
CCCCCCCCCl [1-chlorooctane] | 58.000 | 159 | 
CCCCCCCl [1-chlorohexane] | 119.000 | 136 | 
CCCCBr [1-bromobutane] | 265.000 | 362 | 
O=C[C@H](O)[C@@H](O)[C@H](O)[C@H](O)CO [Glucose] |  |  | Utilization of carbon source for growth, TDTM-003-60-2-11 (TDTM-003-60-2-11 [2]): + +
Inulin |  |  | Utilization of carbon source for growth, TDTM-003 (TDTM-003): -; Utilization of carbon source for growth, TDTM-003-60-2-11 (TDTM-003-60-2-11 [2]): -
CCCCCCBr [1-bromohexane] | 162.000 |  | 
BrCCCCCCBr [1,6-dibromohexane] | 244.000 |  | 
ClCCCCCCl [1,5-dichloropentane] | 173.000 | 112 | 
